For orientation: IC50 means the concentration needed to halve the response being measured. Broadly, the IC95 is the concentration needed for an effect of 95%. A high value points to weaker potency.

The structures appear in SMILES notation.

The test system of the first test is CCRF-CEM. Put plainly: (§1) Antiviral activity to inhibit viral replication of HIV-1 infected CEM cells. The test is classed as functional, cell-based. The following applies: Homo sapiens.
In the case of `CC(C)(C)NC(=O)[C@@H]1C[C@@H]2SCC[C@@H]2CN1C[C@@H](O)[C@H](Cc1ccccc1)NC(=O)[C@@H](CS(=O)(=O)c1ccc(F)cc1)NC(=O)C(F)(F)F`, it took 15 nM to reach half-maximal inhibition (IC50).

`CC(C)(C)NC(=O)[C@@H]1C[C@@H]2CCCC[C@@H]2CN1C[C@@H](O)[C@H](Cc1ccccc1)NC(=O)[C@@H](CS(=O)(=O)c1ccc2ccccc2c1)NS(C)(=O)=O` had a concentration for half-maximal inhibition (IC50) of 3.2 nM.

The compound `CC(C)(C)NC(=O)[C@@H]1C[C@@H]2SCC[C@@H]2CN1C[C@@H](O)[C@H](Cc1ccccc1)NC(=O)[C@@H](CS(=O)(=O)c1cccc2cccnc12)NS(C)(=O)=O` came in with a half-maximal inhibitory concentration (IC50) of 72 nM.

As to `CC(=O)N[C@H](CS(=O)(=O)c1ccc2ccccc2c1)C(=O)N[C@@H](Cc1ccccc1)[C@H](O)CN1C[C@H]2CCS[C@H]2C[C@H]1C(=O)NC(C)(C)C`, the IC50 turned out to be 1.9 nM.

As to `CC(C)(C)NC(=O)[C@@H]1C[C@@H]2SCC[C@@H]2CN1C[C@@H](O)[C@H](CSc1ccccc1)NC(=O)[C@@H](CS(=O)(=O)c1ccc2ccccc2c1)NC(=O)C(F)(F)F`, it took 57 nM to reach half-maximal inhibition (IC50).

`CC(C)(C)NC(=O)[C@@H]1C[C@@H]2CCCC[C@@H]2CN1C[C@@H](O)[C@H](Cc1ccccc1)NC(=O)[C@@H](C[S+]([O-])c1ccc(F)cc1)NS(C)(=O)=O` (stereo partly specified) came in with an IC50 of 9.1 nM.

Compound `CC(C)CN(C[C@@H](O)[C@H](Cc1ccccc1)NC(=O)[C@@H](C[S+]([O-])c1ccc2ccccc2c1)NS(C)(=O)=O)C(=O)NC(C)(C)C` (stereo partly specified) gave an IC50 of 14 nM.

`CC(C)(C)NC(=O)[C@@H]1C[C@@H]2CCCC[C@@H]2CN1C[C@@H](O)[C@H](Cc1ccccc1)NC(=O)[C@@H](CS(=O)(=O)c1ccc(F)cc1)NS(C)(=O)=O` came in with an IC50 of 17 nM.

In the case of `CC(=O)N[C@H](CS(=O)(=O)c1ccc(F)cc1)C(=O)N[C@@H](CSc1ccccc1)[C@H](O)CN1C[C@H]2CCS[C@H]2C[C@H]1C(=O)NC(C)(C)C`, the half-maximal inhibitory concentration (IC50) worked out at 57 nM.

On to `CC(C)CN(C[C@@H](O)[C@H](Cc1ccccc1)NC(=O)[C@@H](CSc1ccc(F)cc1)NS(C)(=O)=O)C(=O)NC(C)(C)C`, for which the IC50 was 17000 nM.

On to `CC(=O)N[C@H](CS(=O)(=O)c1cccc2cccnc12)C(=O)N[C@@H](Cc1ccccc1)[C@H](O)CN1C[C@H]2CCCC[C@H]2C[C@H]1C(=O)NC(C)(C)C`, for which the IC50 is 1.9 nM.

As for `CC(C)(C)NC(=O)[C@@H]1C[C@@H]2CCCC[C@@H]2CN1C[C@@H](O)[C@H](Cc1ccccc1)NC(=O)[C@@H](CSc1ccc2ccccc2c1)NS(C)(=O)=O`, the half-maximal inhibitory concentration (IC50) turned out to be 71 nM.

Another test relates to CCRF-CEM. The test is described as §1. Format: functional. As to conditions: Homo sapiens.
`CC(C)(C)NC(=O)[C@@H]1C[C@@H]2SCC[C@@H]2CN1C[C@@H](O)[C@H](Cc1ccccc1)NC(=O)[C@@H](CS(=O)(=O)c1ccc(F)cc1)NC(=O)C(F)(F)F` displayed an IC95 of 58 nM.

Compound `CC(C)(C)NC(=O)[C@@H]1C[C@@H]2CCCC[C@@H]2CN1C[C@@H](O)[C@H](Cc1ccccc1)NC(=O)[C@@H](CS(=O)(=O)c1ccc2ccccc2c1)NS(C)(=O)=O` showed a 95% effect concentration (IC95) of 10 nM.

Turning to `CC(C)(C)NC(=O)[C@@H]1C[C@@H]2SCC[C@@H]2CN1C[C@@H](O)[C@H](Cc1ccccc1)NC(=O)[C@@H](CS(=O)(=O)c1cccc2cccnc12)NS(C)(=O)=O`, the concentration for an effect of 95% (IC95) came to 250 nM.

As for `CC(=O)N[C@H](CS(=O)(=O)c1ccc2ccccc2c1)C(=O)N[C@@H](Cc1ccccc1)[C@H](O)CN1C[C@H]2CCS[C@H]2C[C@H]1C(=O)NC(C)(C)C`, the IC95 turned out to be 23 nM.

The compound `CC(C)(C)NC(=O)[C@@H]1C[C@@H]2SCC[C@@H]2CN1C[C@@H](O)[C@H](CSc1ccccc1)NC(=O)[C@@H](CS(=O)(=O)c1ccc2ccccc2c1)NC(=O)C(F)(F)F` gave an IC95 of 240 nM.

Compound `CC(C)(C)NC(=O)[C@@H]1C[C@@H]2CCCC[C@@H]2CN1C[C@@H](O)[C@H](Cc1ccccc1)NC(=O)[C@@H](C[S+]([O-])c1ccc(F)cc1)NS(C)(=O)=O` (stereo partly specified) had an IC95 of 31 nM.

Turning to `CC(C)CN(C[C@@H](O)[C@H](Cc1ccccc1)NC(=O)[C@@H](C[S+]([O-])c1ccc2ccccc2c1)NS(C)(=O)=O)C(=O)NC(C)(C)C` (stereo partly specified), the IC95 stood at 62 nM.

Compound `CC(C)(C)NC(=O)[C@@H]1C[C@@H]2CCCC[C@@H]2CN1C[C@@H](O)[C@H](Cc1ccccc1)NC(=O)[C@@H](CS(=O)(=O)c1ccc(F)cc1)NS(C)(=O)=O` registered an IC95 of 54 nM.

`CC(=O)N[C@H](CS(=O)(=O)c1ccc(F)cc1)C(=O)N[C@@H](CSc1ccccc1)[C@H](O)CN1C[C@H]2CCS[C@H]2C[C@H]1C(=O)NC(C)(C)C` showed an IC95 of 180 nM.

With `CC(C)CN(C[C@@H](O)[C@H](Cc1ccccc1)NC(=O)[C@@H](CSc1ccc(F)cc1)NS(C)(=O)=O)C(=O)NC(C)(C)C`, the IC95 was 36000 nM.

Regarding `CC(=O)N[C@H](CS(=O)(=O)c1cccc2cccnc12)C(=O)N[C@@H](Cc1ccccc1)[C@H](O)CN1C[C@H]2CCCC[C@H]2C[C@H]1C(=O)NC(C)(C)C`, the IC95 was 64 nM.

As to `CC(C)(C)NC(=O)[C@@H]1C[C@@H]2CCCC[C@@H]2CN1C[C@@H](O)[C@H](Cc1ccccc1)NC(=O)[C@@H](CSc1ccc2ccccc2c1)NS(C)(=O)=O`, the 95% effect level (IC95) was put at 1900 nM.

The target of the next test is Human immunodeficiency virus type 1 protease (Human immunodeficiency virus 1, UniProt Q72874). Briefly: Inhibitory activity against HIV-1 protease.
Conditions: not given
With `CC(C)(C)NC(=O)[C@@H]1C[C@@H]2SCC[C@@H]2CN1C[C@@H](O)[C@H](Cc1ccccc1)NC(=O)[C@@H](CS(=O)(=O)c1ccc(F)cc1)NC(=O)C(F)(F)F`, the concentration for half-maximal inhibition (IC50) is under 0.2 nM.

`CC(C)(C)NC(=O)[C@@H]1C[C@@H]2CCCC[C@@H]2CN1C[C@@H](O)[C@H](Cc1ccccc1)NC(=O)[C@@H](CS(=O)(=O)c1ccc2ccccc2c1)NS(C)(=O)=O` displayed a half-inhibitory concentration (IC50) of 0.5 nM.

Turning to `CC(C)(C)NC(=O)[C@@H]1C[C@@H]2SCC[C@@H]2CN1C[C@@H](O)[C@H](Cc1ccccc1)NC(=O)[C@@H](CS(=O)(=O)c1cccc2cccnc12)NS(C)(=O)=O`, half-maximal inhibition (IC50) required 0.71 nM.

Take `CC(=O)N[C@H](CS(=O)(=O)c1ccc2ccccc2c1)C(=O)N[C@@H](Cc1ccccc1)[C@H](O)CN1C[C@H]2CCS[C@H]2C[C@H]1C(=O)NC(C)(C)C`: the IC50 stood at 0.5 nM.

In turn, `CC(C)(C)NC(=O)[C@@H]1C[C@@H]2SCC[C@@H]2CN1C[C@@H](O)[C@H](CSc1ccccc1)NC(=O)[C@@H](CS(=O)(=O)c1ccc2ccccc2c1)NC(=O)C(F)(F)F` displayed an IC50 of 1.8 nM.

`CC(C)(C)NC(=O)[C@@H]1C[C@@H]2CCCC[C@@H]2CN1C[C@@H](O)[C@H](Cc1ccccc1)NC(=O)[C@@H](C[S+]([O-])c1ccc(F)cc1)NS(C)(=O)=O` (stereo partly specified) showed an IC50 of 0.6 nM.

As for `CC(C)CN(C[C@@H](O)[C@H](Cc1ccccc1)NC(=O)[C@@H](C[S+]([O-])c1ccc2ccccc2c1)NS(C)(=O)=O)C(=O)NC(C)(C)C` (stereo partly specified), 2.1 nM corresponded to half-maximal inhibition (IC50).

The compound `CC(C)(C)NC(=O)[C@@H]1C[C@@H]2CCCC[C@@H]2CN1C[C@@H](O)[C@H](Cc1ccccc1)NC(=O)[C@@H](CS(=O)(=O)c1ccc(F)cc1)NS(C)(=O)=O` gave an IC50 of 2 nM.

For `CC(=O)N[C@H](CS(=O)(=O)c1ccc(F)cc1)C(=O)N[C@@H](CSc1ccccc1)[C@H](O)CN1C[C@H]2CCS[C@H]2C[C@H]1C(=O)NC(C)(C)C`, the half-inhibitory concentration (IC50) is 1.8 nM.

The compound `CC(C)CN(C[C@@H](O)[C@H](Cc1ccccc1)NC(=O)[C@@H](CSc1ccc(F)cc1)NS(C)(=O)=O)C(=O)NC(C)(C)C` came in with an IC50 of 85 nM.

Turning to `CC(=O)N[C@H](CS(=O)(=O)c1cccc2cccnc12)C(=O)N[C@@H](Cc1ccccc1)[C@H](O)CN1C[C@H]2CCCC[C@H]2C[C@H]1C(=O)NC(C)(C)C`, 1.7 nM corresponded to half-maximal inhibition (IC50).

As for `CC(C)(C)NC(=O)[C@@H]1C[C@@H]2CCCC[C@@H]2CN1C[C@@H](O)[C@H](Cc1ccccc1)NC(=O)[C@@H](CSc1ccc2ccccc2c1)NS(C)(=O)=O`, the IC50 worked out at 5.1 nM.

For the origin of these results see ChEMBL document CHEMBL1128092, “Potent, orally bioavailable HIV-1 protease inhibitors containing noncoded D-amino acids” (Bioorg Med Chem Lett, 1995).
